Literature values, collected in patent US20250090522A1 (priority 2021, published 2025).
Entries after “also recorded” stand apart in the source; their conditions may differ. Read-outs that look alike come from different tables or passages of the source.

Assays:
[1] = withdrawn from the US market in 1999
[2] = not given; remark: listed apart in the source
[3] = not given; remark: listed apart in the source
H1 receptor = H1 receptor (Homo sapiens, UniProt P35367); conditions: acidic pH
[4] = tested on: histamine induced wheal and flare
[5] = tested on: activator protein-1 (AP-1); conditions: H1 receptor-dependent and independent mechanisms
RANTES = conditions: dose-dependent manner
[6] = 421 patients with allergy/asthma treated for six months; p<0.001 for all scales
[7] = tested on: chronic idiopathic urticaria (CIU); conditions: from 5 to 20 mg/day
[8] = airway epithelial cells from nose and lung

Chain of H1 receptor (P35367 whole entry): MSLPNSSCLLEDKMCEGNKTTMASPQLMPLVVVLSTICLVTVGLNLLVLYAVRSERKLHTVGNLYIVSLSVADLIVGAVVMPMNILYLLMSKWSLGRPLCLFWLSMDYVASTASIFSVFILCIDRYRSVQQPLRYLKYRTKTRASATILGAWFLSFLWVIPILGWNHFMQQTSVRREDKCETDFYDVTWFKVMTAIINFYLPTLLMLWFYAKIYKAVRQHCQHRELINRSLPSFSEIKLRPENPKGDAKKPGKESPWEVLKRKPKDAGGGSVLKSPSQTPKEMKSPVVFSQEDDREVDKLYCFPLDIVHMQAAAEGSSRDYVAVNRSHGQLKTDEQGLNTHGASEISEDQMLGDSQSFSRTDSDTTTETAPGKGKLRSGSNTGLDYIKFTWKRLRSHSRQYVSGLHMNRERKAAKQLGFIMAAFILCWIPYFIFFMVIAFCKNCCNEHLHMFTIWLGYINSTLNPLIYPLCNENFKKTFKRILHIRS

**Q.** With COc1ccc(CCN2CCC(Nc3nc4ccccc4n3Cc3ccc(F)cc3)CC2)cc1 [astemizole] as the compound, how does the “activity against SARS-CoV” value (SARS-CoV) read?
**A.** astemizole was active against both

**Q.** What about the “activity against MERSCoV” value (MERSCoV) of the same compound?
**A.** astemizole was active against both

**Q.** And the cardiac toxicity [1]?
**A.** prolongation of the QTc interval

**Q.** What does the source list for CC(C)(O)c1ccccc1CC[C@@H](SCC1(CC(=O)O)CC1)c1cccc(/C=C/c2ccc3ccc(Cl)cc3n2)c1 [Montelukast]?
**A.** linear pharmacokinetics to (in vivo): pharmacokinetics to 50 mg/day; drug interactions (with warfarin, theophylline, digoxin, terfenadine, oral contraceptives, or prednisone): no drug interactions; doses administered without clinically relevant side effects ([2]; adult patients, 22 weeks): up to 200 mg/day; doses administered without clinically relevant side effects ([2]; short-term studies, approximately one week): up to 900 mg/day; risk of mental health side effects ([3]; compared to inhaled corticosteroids (ICS)): no increased risk; risk of outpatient depression ([3]; patients with a psychiatric history, compared to ICS patients): decreased risk

**Q.** With O=C(O)COCCN1CCN([C@H](c2ccccc2)c2ccc(Cl)cc2)CC1 [Levocetirizine] as the compound, how does the “enhanced receptor affinity over first generation mepyramine” value (H1 receptor) read?
**A.** 5 ×

**Q.** What about the “potency among the five modern generation antihistamines” value ([4]; histamine wheal and flare data) of the same compound?
**A.** most potent

**Q.** What about the effectiveness versus fexofenadine ([4]; levocetirizine 5 mg per day versus fexofenadine 180 mg per day) of the same compound?
**A.** more effective than fexofenadine

**Q.** And the “activator protein-1 (AP-1) activity” value [5]?
**A.** inhibit

**Q.** What about the “tumor necrosis factor-a induced production of the chemokine RANTES” value (RANTES) of the same compound?
**A.** decrease

**Q.** And the “quality of life (SF-36)” value [6]?
**A.** improved quality of life across all treatment domains; also recorded: independently improve quality of life

**Q.** What about the “efficacy in CIU on titration” value [7] of the same compound?
**A.** Titratable with increasing efficacy

**Q.** What about the “time to steady state level” value (in vivo) of the same compound?
**A.** 40 h

**Q.** And the “doses that can be safely administered” value ([2]; studies in humans)?
**A.** up to 30 mg/day

**Q.** What about the HRV viral replication (human rhinovirus (HRV); [8]) of the same compound?
**A.** inhibit

**Q.** And the “HRV-induced ICAM-1” value (human rhinovirus (HRV); [8])?
**A.** inhibit

**Q.** What about the HRV-induced cytokine expression (human rhinovirus (HRV); [8]) of the same compound?
**A.** inhibit

**Q.** What about the “antiviral activity against human rhinovirus-16 (HRV-16)” value (human rhinovirus (HRV); cell and clinical science) of the same compound?
**A.** Cell and clinical science-antiviral
